Assay results: patent US20050054647A1, “New pharmaceutical combination” (priority 2002, published 2005)

What was measured:
CC531 cells = test: Colorectal carcinoma model: CC531 cells implanted into the liver of Wag rats, tumor volume, metastasis and tolerability; format: in vivo; conditions: for Tumor Volume: % ± SD compared to untreated controls, CC531 liver tumor in Wag rats, treatment from 7th to 28th postoperative day; for tumor growth / primary tumor volume (in words): treatment day 7-28
Method: ombination of 1-(4-Chloroanilino)-4-(4-pyridylmethyl)phthalazine drochloride (ZK) and 3-pyridylmethyl-N-{4-[(2-amino-phenyl)-rbamoyl]benzyl}carbamate (MS) with Tamoxifen (TAM)
C cells CC531 were cultured in vitro (10th-15th passage) and implanted into e liver of adult (250 g) immuncompetent Wag rats (n/group=12). Between the venth and the 28th postoperative day the rats received either a placebo erapy, the conventional chemotherapy 5-fluoruracil (5FU, 10 mg/kg) or the llowing biomodulators alone or in combination: the VEGF receptor antagonist (4-Chloroanilino)-4-(4-pyridylmethyl)phthalazine hydrochloride (ZK) 0mg/kg), the histone deacetylase inhibitor 3-pyridylmethyl-N-{4-[(2-amino-enyl)carbamoyl]benzyl}carbamate (MS) dose and Tamoxifen (TAM) (TAM: g/kg KG i.p.). Apoptosis rate was assessed using a the TUNEL method on raformaldehyd fixed tumor material.

SMILES	melting point	Tumor Volume (CC531 cells)	tumor growth / primary tumor volume (in words) (CC531 cells)
Cc1ncsc1CCOC(=O)NCc1ccc(C(=O)Nc2ccccc2N)cc1 [Example 64, N-(2-aminophenyl)-4-[N-[2-(4-methylthiazol-5-yl)ethoxycarbonyl]aminomethyl]benzamide]	130 to 133 °C		
COC(=O)c1ccc(C(=O)NCc2ccc(C(=O)Nc3ccccc3N)cc2)cc1 [Example 11, N-(2-aminophenyl)-4-[N-(4-methoxycarbonylbenzoyl)aminomethyl]benzamide]	204 to 209 °C (dec.)		
Nc1ccccc1NC(=O)c1ccc(-n2cc(COc3ccc([N+](=O)[O-])cc3)oc2=O)cc1 [Example 137, N-(2-aminophenyl)-4-[5-(4-nitrophenoxy)methyl-1,3-oxazolin-2-on-3-yl]benzamide]	162 to 164 °C		
CC(=O)Nc1ccc(Nc2nnc(Cc3ccncc3)c3ccccc23)cc1 [Example A-11, 1-(4-Acetaminoanilino)-4-(4-pyridylmethyl)phthalazine]	> 270 °C		
CC(C)c1ccc(Nc2nnc(Cc3ccncc3)c3ccccc23)cc1.Cl.Cl	> 250 °C		
O=c1[nH]cc(F)c(=O)[nH]1 [5-Fluorouracil (5FU), 5-Fluorouracil, reference compound]		85 ± 19%	did not reduce tumor growth
Cl.Nc1ccc2c(Cc3ccncc3)nnc(Nc3ccc(Cl)cc3)c2c1	> 300 °C		
Clc1ccc(Nc2nnc(Cc3ccncc3)c3ccccc23)cc1.O=C(O)CCC(=O)O [K, (4-Chlorophenyl)[4-(4-pyridylmethyl)-phthalazin-1-yl]-ammonium hydrogen succinate]		94 ± 20%	no significant reduction
Nc1ccccc1NC(=O)c1ccc(CNC(=O)OCc2cccnc2)cc1 [3-pyridylmethyl-N-{4-[(2-amino-phenyl)-carbamoyl]benzyl}-carbamate]		80 ± 23%	
Nc1ccccc1NC(=O)c1ccc(-n2cc(COc3cccnc3)oc2=O)cc1 [Example 139, N-(2-aminophenyl)-4-[5-(pyridin-3-yl)oxymethyl-1,3-oxazolin-2-on-3-yl]benzamide]	199 to 201 °C		
CC/C(=C(\c1ccccc1)c1ccc(OCCN(C)C)cc1)c1ccccc1 [Tamoxifen (TAM), (Z)-2-[p-(1,2-diphenyl-1-butenyl)phenoxy]-N,N-dimethylethylamine, reference compound]		90 ± 10%	no significant reduction
Nc1ccccc1NC(=O)c1ccc(CNC(=O)OCc2cccnc2)cc1 [MS, N-(2-aminophenyl)-4-[N-(pyridin-3-yl)methoxycarbonylaminomethyl]benzamide]			no significant reduction
